Test results taken from patent publication US8669072B2, “Oxadiazoline ligands for modulating the expression of exogenous genes via an ecdysone receptor complex” (Intrexon Corporation, priority 2003, dated 2014).
Where two headings read alike, the source gives them in different places.

Key:
[1] = target: CfEcR (CDEF)/CfUSP, GST fusion protein (Choristoneura fumiferana, UniProt O77240); assay: CfEcR (CDEF)/CfUSP GST fusion protein assay; format: binding
Bombyx mori EcR (VBE) = target: T1, Bombyx mori EcR (VBE) (Bombyx mori, UniProt P49881); assay: Z3 assay: β-galactosidase reporter gene induction in HEK-293 clone Z3 (CVBE / 6XEcRE LacZ); format: cell-based; settings: for Fold Induction Average, Z3 assay: 33 μM ligand, 48 h, RLU relative to DMSO; for fold induction at 33 µM: HEK293, 48 h, read-out: Fold Induction Average, Z3 assay; for Rel Max FI, Z3 assay: maximum fold induction relative to that of GS-E ligand
T1 construct: expressed in transfected cells; host or cells: Human HEK-293 cells, retrovirally infected, clone Z3
T1 sequence (P49881 86-606 limits assumed): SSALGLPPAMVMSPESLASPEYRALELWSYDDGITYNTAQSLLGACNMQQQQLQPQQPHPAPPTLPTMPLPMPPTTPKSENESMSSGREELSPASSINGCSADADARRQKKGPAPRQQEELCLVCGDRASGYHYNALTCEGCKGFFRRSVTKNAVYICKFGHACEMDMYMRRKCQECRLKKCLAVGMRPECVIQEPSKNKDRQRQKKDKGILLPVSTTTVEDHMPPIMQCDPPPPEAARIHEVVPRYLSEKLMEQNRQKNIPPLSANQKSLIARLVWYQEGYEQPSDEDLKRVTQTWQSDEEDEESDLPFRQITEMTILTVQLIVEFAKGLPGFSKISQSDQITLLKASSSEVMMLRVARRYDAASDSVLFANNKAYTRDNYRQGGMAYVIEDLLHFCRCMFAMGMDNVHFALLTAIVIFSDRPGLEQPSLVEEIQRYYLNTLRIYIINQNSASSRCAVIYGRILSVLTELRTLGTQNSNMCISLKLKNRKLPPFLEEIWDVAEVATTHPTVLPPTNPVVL
T1 sequence (P19793 1-462 partner): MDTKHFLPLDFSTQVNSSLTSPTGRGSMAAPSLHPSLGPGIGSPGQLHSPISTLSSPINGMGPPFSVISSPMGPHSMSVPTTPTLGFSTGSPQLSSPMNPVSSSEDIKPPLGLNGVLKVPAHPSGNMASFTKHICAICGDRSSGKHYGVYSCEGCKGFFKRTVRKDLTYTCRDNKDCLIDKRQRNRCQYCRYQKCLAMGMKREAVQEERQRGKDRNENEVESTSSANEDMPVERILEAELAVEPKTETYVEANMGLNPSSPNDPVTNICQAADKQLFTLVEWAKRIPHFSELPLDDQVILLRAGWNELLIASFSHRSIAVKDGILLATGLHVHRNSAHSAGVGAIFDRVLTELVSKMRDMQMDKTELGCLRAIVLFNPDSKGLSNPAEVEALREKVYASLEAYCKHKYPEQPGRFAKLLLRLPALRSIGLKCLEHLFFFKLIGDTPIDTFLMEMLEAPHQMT

Cabbage Looper = assay: Insect toxicity feeding bioassay, CL; format: in vivo; settings: for Insect Toxicity LC50, CL: in vivo
Method: (§1) The compound to be evaluated was dissolved in an appropriate solvent, usually a mix of acetone, methanol, and water. Test solutions were made by serial dilution of a stock test solution with acetone, methanol, and water. Initial evaluations were made at one or more concentrations on one or more of the following insects:
(§2) Feeding bioassays were conducted in bioassay trays containing insect diet. Treatments were made by applying 50 μL of test solution to the surface of the diet in each of 5 wells. After the test solution dried, each well was infested with a single neonate larva. The trays were held for six days and then the mortality rating was determined for each treatment.

[2] = system: MTA (two-spotted spider mite); assay: Insect toxicity contact bioassay, MTA; format: in vivo; settings: for Insect Toxicity LC50, MTA: in vivo
Method: as §1
(§3) Contact bioassays (green peach aphid, two-spotted spider mite, white fly) were conducted by applying a solution of the test compound to the inside surface of a Petri dish. The solution was allowed to air-dry, then each dish was infested and the larvae from each treatment were transferred to a bioassay tray. The trays were held for one to seven days, and the mortality rating was determined for each treatment.

Beet Armyworm = assay: Insect toxicity feeding bioassay, BAW; format: in vivo; settings: for Insect Toxicity LC50, BAW: in vivo
Method: as §1, §2

Tobacco Budworm = assay: Insect toxicity bioassay, TBW; format: in vivo; settings: for Insect Toxicity LC50, TBW: in vivo
Method: as §1, §2
Some of the tobacco budworm tests were conducted as follows. A test solution containing 600 ppm was made by dissolving a compound of the invention in a 1:1 acetone:methanol solution, then adding water to give a 5:5:90 acetone:methanol:water solution, and finally a surfactant was added at an equivalent of 7.37 g of surfactant per 100 L of test solution (1 ounce of surfactant per 100 gallons of test solution). Appropriate dilutions were prepared in water from the 600 ppm solution. A detached cotton leaf, Gossypium hirsutum was placed on moistened filter paper in a Petri dish (100×20 mms). The leaf was sprayed with the test solution using a rotating turntable sprayer and allowed to dry. The dish was infested with 10 first instar larvae of the tobacco budworm and covered with the lid. If the larvae were alive two days after treatment, fresh untreated cotton leaves were added. All treatments were maintained at 23.9-26.7° C. (75-80° F.) under fluorescent light in a well-ventilated room. Percent mortality was determined at four days after treatment.

[3] = target: T2, GAL4 DBD-CfEcR(DEF)/VP16AD-MmRXRE (Choristoneura fumiferana, UniProt O77240); assay: 13B3 assay: luciferase reporter gene induction in stable CHO clone 13B3; format: cell-based; settings: for fold induction at 33.3 µM: read-out: Fold Induction Average, 13B3 assay; for Rel Max FI, 13B3 assay: maximum fold induction relative to that of GS-E ligand
T2 construct: The wild-type D, E, and F domains from spruce budworm Choristoneura fumiferana EcR (“CfEcR-DEF”)
Method in brief: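 Stable CHO clone 13B3 co-expressing GAL4 DBD-CfEcR(DEF) and VP16AD-MmRXRE with a GAL4 RE-luciferase reporter; ligands from DMSO stocks diluted 300-fold. Luciferase read by luminescence 48 h after treatment, duplicate wells averaged. Fold induction = RLU treated/RLU DMSO; EC50 from three-parameter logistic fit.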

WFN (white fly) = assay: Insect toxicity contact bioassay, WFN; format: in vivo; settings: for Insect Toxicity LC50, WFN: in vivo
Method: as §1, §3

[4] = target: T3, GAL4 DBD (1-147)-CfEcR(DEF)/VP16AD-βRXREF-LmUSPEF (Choristoneura fumiferana, UniProt O77240); assay: cell-based; settings: for Rel Max FI, 27-63 assay: maximum fold induction relative to that of GS-E ligand; for fold induction at 33.3 µM: 48 h, read-out: Fold Induction Average, 27-63 assay
T3 construct: The wild-type D, E, and F domains from spruce budworm Choristoneura fumiferana EcR (“CfEcR-DEF”)
Method in brief: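 CHO clone stably carrying the GAL4-DBD–spruce budworm EcR(DEF) and VP16–RXR/USP chimeric receptor with a GAL4-responsive luciferase reporter; ligand added from DMSO stock diluted 300-fold.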

[5] = GST fusion protein, read-out: CfEcR EC50

Chain of CfEcR (CDEF)/CfUSP, GST fusion protein (O77240 entry or part of it): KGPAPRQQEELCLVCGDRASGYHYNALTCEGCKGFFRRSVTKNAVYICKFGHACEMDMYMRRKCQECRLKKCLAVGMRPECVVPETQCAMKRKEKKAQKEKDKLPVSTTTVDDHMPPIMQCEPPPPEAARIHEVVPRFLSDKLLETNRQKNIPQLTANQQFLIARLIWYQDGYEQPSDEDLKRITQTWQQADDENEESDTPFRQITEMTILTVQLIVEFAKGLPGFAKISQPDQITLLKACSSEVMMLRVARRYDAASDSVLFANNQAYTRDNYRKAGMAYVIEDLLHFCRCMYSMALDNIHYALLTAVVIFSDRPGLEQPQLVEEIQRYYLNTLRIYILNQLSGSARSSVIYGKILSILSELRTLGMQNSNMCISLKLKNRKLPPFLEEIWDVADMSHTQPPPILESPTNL
Chain of CfEcR (CDEF)/CfUSP, GST fusion protein (O76202 whole entry, further chain, the tested form may be a part): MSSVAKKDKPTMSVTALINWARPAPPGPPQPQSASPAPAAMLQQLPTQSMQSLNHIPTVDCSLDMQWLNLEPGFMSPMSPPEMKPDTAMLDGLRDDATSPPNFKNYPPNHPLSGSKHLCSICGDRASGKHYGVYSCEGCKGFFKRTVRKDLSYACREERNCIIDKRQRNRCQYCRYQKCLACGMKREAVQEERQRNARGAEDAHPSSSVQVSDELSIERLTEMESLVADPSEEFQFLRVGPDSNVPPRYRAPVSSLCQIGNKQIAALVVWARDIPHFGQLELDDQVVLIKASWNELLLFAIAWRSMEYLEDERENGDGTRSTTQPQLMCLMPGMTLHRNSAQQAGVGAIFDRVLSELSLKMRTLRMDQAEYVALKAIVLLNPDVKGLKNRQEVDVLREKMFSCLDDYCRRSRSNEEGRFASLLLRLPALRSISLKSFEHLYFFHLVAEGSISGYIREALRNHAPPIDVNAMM

Row | Compound | EC50 [1, 5] [µM] | Insect Toxicity LC50, CL (Cabbage Looper) [ppm] | Insect Toxicity % control @ 150 ppm, MTA [2] [% @ 150] | fold induction at 33 µM (Bombyx mori EcR (VBE)) | Insect Toxicity LC50, BAW (Beet Armyworm) [ppm] | Insect Toxicity LC50, TBW (Tobacco Budworm) [ppm] | fold induction at 33.3 µM ([3]; 48 h) | Insect Toxicity % control @ 150 ppm, WFN (WFN (white fly)) [% @ 150] | EC50 [4] [µM] | Rel Max FI, 27-63 assay [4] | EC50 [1] [µM] | Insect Toxicity LC50, MTA [2] [ppm] | EC50 (Bombyx mori EcR (VBE)) [µM] | Rel Max FI, Z3 assay (Bombyx mori EcR (VBE)) | EC50 [3] [µM] | Rel Max FI, 13B3 assay [3] | Insect Toxicity LC50, WFN (WFN (white fly)) [ppm] | fold induction at 33.3 µM [4] | further results
1 | CCc1c(OC)cccc1C(=O)NN1C(c2cc(C)cc(C)c2)=NOC12CCOCC2 [RG-120008] |  |  |  |  |  |  |  |  |  |  |  |  |  |  |  |  |  |  | CfEcR % @ 1 uM [1]: 81% @ 1 uM; Fold Induction Average, Z3 assay (Bombyx mori EcR (VBE)): 567.3
2 | CCC1(C)ON=C(c2cc(C)cc(C)c2)N1NC(=O)Nc1ccccc1 (stereo not shown) [RG-120051] | 0.147 |  |  |  |  |  |  |  |  |  |  |  |  |  |  |  |  |  | 
3 | CCc1ccc(C(=O)NN2C(c3cc(C)cc(C)c3)=NOC2(C)C)cc1 [RG-120060] |  | 47 | 0 | 108 | 23 | >150 | 16.8 | 0 | > 33 | 0.01 |  |  |  |  |  |  |  |  | Kd ([1]; GST fusion protein, read-out: CfEcR Kd): 0.038 µM
4 | CCc1c(OC)cccc1C(=O)NN1C(c2cc(C)cc(C)c2)=NOC1(C)CC (stereo not shown) [RG-120069] |  | 4.7 |  |  | 4.7 | >150 | 478 |  | 3.31 | 1.11 | 0.0142 | 146 | 1.68 | 0.8 | 2.95 | 1.02 | >150 | 1870 | 
5 | CCc1c(OC)cccc1C(=O)NN1C(c2ccccc2)=NOC1(C)CC (stereo not shown) [RG-120076] |  | 47 |  | 0.2 | 47 | >150 | 20.2 |  | ~20 | 1.4 | 0.00835 | 92 | 12.4 | 0.9 | > 33.3 | 0.05 | >150 | 4090 | 
6 | CCc1c(OC)cccc1C(=O)NN1C(c2cc(C)cc(C)c2)=NOC1(C)C [RG-120080, N-[3-(3,5-dimethyl-phenyl)-5,5-dimethyl-[1,2,4]oxadiazol-4-yl]-2-ethyl-3-methoxy-benzamide] |  | 47 | 0 | 310 | 23 | >150 | 717 | 0 | 8.35 | 1.29 |  |  | 3.95 | 0.71 | 12.3 | 1.04 |  |  | Kd [1]: 0.0119 µM
7 | CCc1ccc(C(=O)NN2C(c3ccccc3)=NOC23CCCC3)cc1 [RG-120125] | 0.0579 | 23 |  | 254 | 98 | >150 | 82.6 |  | ~20 | 0.27 |  | 167 | 10 | 0.67 | > 33.3 | 0.16 | 150 | 510 | 
8 | CCOC(=O)CCC(=O)NN1C(c2cc(C)cc(C)c2)=NOC1(C)CC (stereo not shown) [RG-120126] | 0.136 |  | 0 | 2.4 |  |  | 0.4 | 79 |  |  |  |  | > 50 | 0.04 | > 33.3 | 0 |  |  | Insect Toxicity % control @ 150 ppm, CL (Cabbage Looper; 150 ppm): 0% @ 150; Insect Toxicity % control @ 150 ppm, BAW (Beet Armyworm; 150 ppm): 0% @ 150; Insect Toxicity % control @ 150 ppm, TBW (Tobacco Budworm; 150 ppm): 0% @ 150
9 | Cc1cc(C)cc(C2=NOC3(CCCC3)N2NC(=O)c2cc3ccccc3s2)c1 [RG-120152] |  |  |  |  |  |  |  |  |  |  |  |  |  |  |  |  |  |  | CfEcR % @ 1 uM [1]: 92% @ 1 uM; Fold Induction Average, Z3 assay (Bombyx mori EcR (VBE)): 59.9; Fold Induction Average, 13B3 assay ([3]; 33/33.3 μM ligand, 48 h, RLU relative to DMSO): 264.3
10 | CCC1(C)ON=C(c2cc(C)cc(C)c2)N1NC(=O)c1cc2ccccc2s1 (stereo not shown) [RG-120161] |  | 17 |  |  | 87 | >150 | 59.9 |  |  |  | 0.0624 | 110 | 2.14 | 0.08 | 3.46 | 0.14 | >150 |  | 
